Measurements: ChEMBL document CHEMBL5505967, “Design and synthesis of 4-amino-2',4'-dihydroxyindanone derivatives as potent inhibitors of tyrosinase and melanin biosynthesis in human melanoma cells” (Eur J Med Chem, 2024)

Columns and labels:
Mushroom tyrosinase = Mushroom tyrosinase (Agaricus bisporus, UniProt O42713+Q00024+C7FF04+C7FF05); assay: Inhibition of mushroom tyrosinase using L-DOPA as substrate preincubated for 10 mins followed by substrate addition measured after 10 mins by absorbance based spectramax microplate reader assay; type: protein assay
MNT-1 [1] = assay: cells; conditions: Homo sapiens, MNT-1, 96 h
Description: Inhibition of melanogenesis in human MNT-1 cells incubated for 4 days

MNT-1 [2] = assay: cells; conditions: Homo sapiens, MNT-1, 336 h
Description: Inhibition of melanogenesis in human MNT-1 cells incubated for 14 days

MNT-1 [3] = assay: cells; conditions: Homo sapiens, MNT-1, 96 h; remark: listed apart in the source
Description: Cytotoxicity against human MNT-1 cells incubated for 4 days by resazurin assay

MNT-1 [4] = assay: cells; conditions: Homo sapiens, MNT-1, 336 h; remark: listed apart in the source
Description: Cytotoxicity against human MNT-1 cells incubated for 14 days by resazurin assay

Tyrosinase [5] = target: T1, Tyrosinase (Homo sapiens, UniProt P14679); assay: Inhibition of His-tagged human tyrosinase expressed in HEK293 cells using L-DOPA as substrate by microplate reader analysis
T1 sequence (P14679 whole entry): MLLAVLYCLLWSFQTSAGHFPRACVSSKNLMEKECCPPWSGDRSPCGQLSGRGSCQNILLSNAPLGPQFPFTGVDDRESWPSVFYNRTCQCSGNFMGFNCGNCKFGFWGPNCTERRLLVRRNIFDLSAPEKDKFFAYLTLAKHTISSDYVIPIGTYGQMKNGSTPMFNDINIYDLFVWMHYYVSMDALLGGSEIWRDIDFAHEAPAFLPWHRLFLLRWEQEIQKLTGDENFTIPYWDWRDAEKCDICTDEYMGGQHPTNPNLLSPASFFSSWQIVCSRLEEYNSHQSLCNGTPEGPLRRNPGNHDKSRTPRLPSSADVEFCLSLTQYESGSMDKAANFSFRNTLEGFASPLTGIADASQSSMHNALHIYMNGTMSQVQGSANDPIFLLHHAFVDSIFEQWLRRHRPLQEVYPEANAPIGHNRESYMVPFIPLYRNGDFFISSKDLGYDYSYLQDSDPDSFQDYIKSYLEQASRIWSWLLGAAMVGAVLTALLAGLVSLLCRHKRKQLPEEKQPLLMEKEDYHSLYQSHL

Tyrosinase [6] = target: T1, Tyrosinase
Description: Inhibition of tyrosinase in human MNT-1 cells using L-DOPA as substrate preincubated for 10 mins followed by substrate addition measured after 180 mins by absorbance based spectramax microplate reader assay

SMILES	IC50 (Mushroom tyrosinase)	IC50 (MNT-1 [1])	IC50 (MNT-1 [2])	CC50 (MNT-1 [3])	CC50 (MNT-1 [4])	IC50 (Tyrosinase [5])	IC50 (Tyrosinase [6])
O=C1/C(=C/c2ccc(O)cc2O)Cc2c(O)cccc21	0.09 µM	–	–	–	–	–	–
O=C1/C(=C/c2ccc(O)cc2O)Cc2c(F)cccc21	0.15 µM	–	–	–	–	–	–
CCCC(=O)Nc1cccc2c1C/C(=C\c1ccc(O)cc1O)C2=O	0.006 µM	24 µM	2 µM	> 100 µM	77 µM	–	–
Oc1cccc(O)c1 [RESORCINOL]	–	–	–	–	–	> 3000 µM	–
O=C1/C(=C/c2ccc(O)cc2O)Cc2c1cccc2[N+](=O)[O-]	0.16 µM	–	–	–	–	–	> 100 µM
CC(C)C(=O)Nc1nc(-c2ccc(O)cc2O)cs1	–	10 µM	0.28 µM	> 100 µM	36 µM	–	0.17 µM
NCC(=O)Nc1cccc2c1C/C(=C\c1ccc(O)cc1O)C2=O	0.39 µM	29 µM	12 µM	> 100 µM	> 100 µM	–	–
Nc1cccc2c1C/C(=C\c1ccc(O)cc1O)C2=O	0.027 µM	3.8 µM	0.53 µM	> 100 µM	66 µM	–	–
CN(C)c1cccc2c1C/C(=C\c1ccc(O)cc1O)C2=O	0.083 µM	–	–	–	–	–	–
O=C(Nc1cccc2c1C/C(=C\c1ccc(O)cc1O)C2=O)c1ccccc1	0.1 µM	–	–	–	–	–	–
CC(C)[C@@H](N)C(=O)Nc1cccc2c1C/C(=C\c1ccc(O)cc1O)C2=O	0.46 µM	–	–	–	–	–	–
Cc1cccc2c1C/C(=C\c1ccc(O)cc1O)C2=O	0.019 µM	21 µM	4.1 µM	> 100 µM	61 µM	–	–
CC(=O)Nc1cccc2c1C/C(=C\c1ccc(O)cc1O)C2=O	0.009 µM	19 µM	3.3 µM	> 100 µM	67 µM	–	–
CCC(=O)Nc1cccc2c1C/C(=C\c1ccc(O)cc1O)C2=O	0.014 µM	8 µM	3.1 µM	> 100 µM	65 µM	–	–
CNc1cccc2c1C/C(=C\c1ccc(O)cc1O)C2=O	0.014 µM	3.2 µM	0.77 µM	78 µM	29 µM	–	–
CC(C)C(=O)Nc1cccc2c1C/C(=C\c1ccc(O)cc1O)C2=O	0.06 µM	7 µM	2.1 µM	> 100 µM	62 µM	–	–
C[C@H](N)C(=O)Nc1cccc2c1C/C(=C\c1ccc(O)cc1O)C2=O	0.6 µM	19 µM	4.6 µM	> 100 µM	94 µM	–	–
N#Cc1cccc2c1C/C(=C\c1ccc(O)cc1O)C2=O	0.26 µM	–	–	–	–	–	–
O=C1/C(=C/c2ccc(O)cc2O)Cc2c(Br)cccc21	0.086 µM	–	–	–	–	–	–
COc1cccc2c1C/C(=C\c1ccc(O)cc1O)C2=O	0.16 µM	–	–	–	–	–	–
O=C1/C(=C/c2ccc(O)cc2O)Cc2c1cccc2C(F)(F)F	0.18 µM	–	–	–	–	–	> 100 µM
